Legend:
[1] = target: T1, cloned human 5HT2B receptor (Homo sapiens, UniProt P41595); experiment: 5HT2B functional assay, intracellular Ca2+ in CHO cells; assay type: cell-based
T1 construct: expressed in transfected cells; host or cells: CHO cells
Procedure: Agonist effects at the 5HT2B receptor were assessed by incubation at 22° C. of a series of concentrations of test compound with intact CHO cells heterologously expressing the cloned human 5HT2B receptor and measuring intracellular [Ca^2+] by fluorimetry according to the method of Porter et al., 1991, Brit. J. Pharmacol. 128:13-20. Antagonist effects were assessed by the ability of a series of concentrations of test compound to block the increase in intracellular [Ca^2+] that occurred in the presence of 0.3 nM serotonin under the same conditions. EC50 and IC50 values were determined using standard methods.

[2] = test system: rat hindpaw incision model; experiment: rat hindpaw incisional pain model, tactile allodynia; assay type: in vivo; conditions: 30 mg/kg IP, 24 hours post-surgery
Procedure: Protocol. A time course experiment was also performed with (−)-beloxepin in the hindpaw incision model. At 24 hours post-surgery, rats received vehicle or (−)-beloxepin (30 mg/kg IP). Rats were tested for tactile allodynia at 30, 60, 120 and 240 minutes after administration of (−)-beloxepin.
Protocol. Another time course experiment was performed with (+)-beloxepin in the hindpaw incision model. At 24 hours post-surgery, rats received vehicle or (+)-beloxepin (30 mg/kg IP). Rats were tested for tactile allodynia at 30, 60, 120 and 240 minutes after administration of (+)-beloxepin.

[3] = target: NET (rat hypothalamus synaptosomes) (Rattus norvegicus, UniProt Q63380); experiment: NE uptake inhibition assay, [3H]norepinephrine into synaptosomes; assay type: biochemical; conditions: 20 min 37° C., read-out: NET IC50 (norepinephrine reuptake inhibition)
L5 SNL rats = experiment: L5 Single Nerve Ligation model of neuropathic pain, tactile allodynia (von Frey); assay type: in vivo, rat
Procedure: Protocol. The antiallodynic activity of (−)-beloxepin was tested in vivo using the L5—Single Nerve Ligation model of non-nociceptive neuropathic pain as described in LaBuda & Little, 2005, J. Neurosci. Methods 144:175-181. The test animals were placed in a Plexiglas chamber (10 cm×20 cm×25 cm) and habituated for 15 minutes. The chamber was positioned on top of a mesh screen so that von Frey monofilaments could be presented to the plantar surface of both hindpaws. Measurement of tactile sensitivity for each hind paw were obtained using the up/down method (Dixon, 1980, Annu. Rev. Pharmacol. Toxicol. 20:441-462) with seven Frey monofilaments (0.4, 1, 2, 4, 6, 8 and 15 grams). Each trial started with a von Frey force of 2 grams delivered to the right hind paw for approximately 1-2 seconds and then the left hind paw. If there was no withdrawal response, the next higher force was delivered. If there was a response, the next lower force was delivered. This procedure was performed until no response was made at the highest force (15 grams) or until four stimuli were administered following the initial response. The 50% paw withdrawal threshold for each paw was calculated using the following formula: [Xth]log=[vFr]log+ky, where [vFr] is the force of the last von Frey used, k=0.2249 which is the average interval (in log units) between the von Frey monofilaments, and y is a value that depends upon the pattern of withdrawal responses (Dixon, 1980, supra). […] Testing for tactile sensitivity was performed twice and the mean 50% withdrawal value assigned as the tactile sensitivity for the right and left paws for each animal.
Results. The antiallodynic effects produced by (−)-beloxepin (30 mg/kg IP) and (+)-beloxepin (30 mg/kg IP) in L5 SNL rats 8 days post surgery are illustrated in FIG. 1. In this experiment, at 8 days post surgery, rats were treated with vehicle or beloxepin enantiomers (30 mg/kg IP) and tested for tactile allodynia at 30 min post treatment. […] No side effects were observed following treatment with either enantiomer.
The antiallodynic effects produced by (−)-beloxepin (30 mg/kg IP) in L5 SNL rats 14 days post surgery are illustrated in FIG. 2. In this experiment, at 14 days post surgery, rats were treated with vehicle or (−)-beloxepin and tested for tactile allodynia at 30, 60, 120 and 240 min post treatment. Vehicle treated rats were tested at 30 min post treatment.
Protocol. A time course experiment was performed with (−)-beloxepin (60 mg/kg PO) in L5 SNL rats at 7 days post-surgery. Rats were tested at 30, 60, 120, and 240 minutes post-drug.
Protocol. A time course experiment was also performed with (+)-beloxepin (60 mg/kg PO) in L5 SNL rats at 14 days post-surgery. Rats were tested at 30, 60, 120, and 240 minutes post-drug.

[4] = test system: rat 50° C. hot plate model; experiment: rat 50° C. hot plate assay; assay type: in vivo
Procedure: Protocol. Rats were treated with vehicle, 30 mg/kg IP of (−)-beloxepin, or 30 mg/kg IP of (+)-beloxepin and then were placed on a hot plate (50° C.) 30, 60, or 120 minutes after administration of the vehicle or beloxepin enantiomer. Rats treated with 3 mg/kg SC of morphine and tested 30 min post-treatment were used as a positive control in these experiments.

[5] = target: T1, cloned human 5HT2B receptor; experiment: 5HT2B receptor binding assay, [125I]DOI; conditions: CHO membranes
Procedure: For the 5HT2B receptor binding assay, [^125I](±)[…] (DOI) (0.2 nM) was incubated for 15 min at 37° C. with membranes prepared from Chinese hamster ovary cells heterologously expressing the cloned human 5HT2B receptor according to the method of Choi et al., 1994, FEBS Lett 352:393-399. Various concentrations of test compound were added and bound radioactivity was determined by scintillation counting. Non-specific binding was determined in the presence of 1.0 μM unlabeled DOI. The Ki value for the test compound was determined using standard methods.

human recombinant CYP2D6 = target: T2, human recombinant CYP2D6 (Homo sapiens, UniProt P10635); experiment: CYP2D6 inhibition, MAMC substrate; assay type: in vitro ADME; conditions: microsomes with human recombinant CYP2D6; read-out: CYP2D6 Isoenzyme IC50
T2 construct: purchased BD Bioscience
Procedure: Protocol. […] The source of the enzyme was microsomes containing human recombinant CYP2D6 obtained from BD Bioscience. Conversion of MAMC to 7-hydroxy-4-(aminomethyl)coumarin was measured using a PerkinElmer Fusion with a 390 nm excitation filter and a 460 nm emission filter.

T1 sequence (P41595 whole entry): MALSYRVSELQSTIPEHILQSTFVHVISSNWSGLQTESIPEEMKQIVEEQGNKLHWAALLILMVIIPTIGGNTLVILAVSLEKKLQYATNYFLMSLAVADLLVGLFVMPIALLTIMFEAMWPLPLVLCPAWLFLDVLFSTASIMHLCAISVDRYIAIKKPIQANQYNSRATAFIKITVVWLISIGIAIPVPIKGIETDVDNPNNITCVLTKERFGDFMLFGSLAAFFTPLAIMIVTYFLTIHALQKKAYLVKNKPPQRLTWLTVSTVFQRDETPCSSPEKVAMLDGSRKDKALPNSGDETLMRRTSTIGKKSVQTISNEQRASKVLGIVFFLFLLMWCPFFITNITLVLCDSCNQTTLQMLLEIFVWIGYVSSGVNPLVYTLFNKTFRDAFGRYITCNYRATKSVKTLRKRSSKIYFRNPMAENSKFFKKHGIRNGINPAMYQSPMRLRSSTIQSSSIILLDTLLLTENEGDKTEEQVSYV
T2 sequence (P10635 whole entry): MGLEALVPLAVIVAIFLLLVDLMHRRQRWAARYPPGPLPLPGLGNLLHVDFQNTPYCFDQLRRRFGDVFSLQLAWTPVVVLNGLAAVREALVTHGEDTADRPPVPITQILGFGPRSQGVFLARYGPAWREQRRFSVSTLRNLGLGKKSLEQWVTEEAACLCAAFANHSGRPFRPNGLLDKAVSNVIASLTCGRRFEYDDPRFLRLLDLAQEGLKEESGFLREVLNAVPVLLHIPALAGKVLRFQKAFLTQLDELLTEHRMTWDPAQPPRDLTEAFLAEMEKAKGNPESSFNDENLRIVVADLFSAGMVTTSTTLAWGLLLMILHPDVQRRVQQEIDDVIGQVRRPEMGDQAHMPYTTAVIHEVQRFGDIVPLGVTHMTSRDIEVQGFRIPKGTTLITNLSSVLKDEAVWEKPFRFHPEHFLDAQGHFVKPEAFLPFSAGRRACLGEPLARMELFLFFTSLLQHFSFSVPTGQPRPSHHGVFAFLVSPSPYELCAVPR
NET (rat hypothalamus synaptosomes), sequence (Q63380 1-617): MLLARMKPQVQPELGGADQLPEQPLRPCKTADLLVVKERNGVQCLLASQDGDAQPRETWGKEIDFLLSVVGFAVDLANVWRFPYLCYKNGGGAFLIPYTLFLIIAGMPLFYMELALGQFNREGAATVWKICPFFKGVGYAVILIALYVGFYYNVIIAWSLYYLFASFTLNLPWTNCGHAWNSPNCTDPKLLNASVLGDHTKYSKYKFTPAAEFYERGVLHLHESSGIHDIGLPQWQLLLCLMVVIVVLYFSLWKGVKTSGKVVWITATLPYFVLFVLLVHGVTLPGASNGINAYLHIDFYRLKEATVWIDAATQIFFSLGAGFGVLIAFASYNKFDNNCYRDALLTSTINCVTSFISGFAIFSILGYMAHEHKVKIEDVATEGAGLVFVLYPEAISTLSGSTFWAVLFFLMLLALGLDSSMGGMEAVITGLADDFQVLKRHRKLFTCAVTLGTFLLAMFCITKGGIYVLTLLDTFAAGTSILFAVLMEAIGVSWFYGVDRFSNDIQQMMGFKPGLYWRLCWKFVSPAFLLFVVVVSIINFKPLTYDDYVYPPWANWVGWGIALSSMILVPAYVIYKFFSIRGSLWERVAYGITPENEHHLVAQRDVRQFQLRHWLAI

In the case of `Cc1cccc2c1Oc1ccccc1C1(O)CCN(C)CC21` (single isomer, unassigned; (+)) [(+)-beloxepin], the “5HT2B functional activity type” value [1] is reported as “antagonist”, the IC50 ([1]; antagonist mode, vs 0.3 nM serotonin) is reported as 690 nM and the “maximum hindpaw withdrawal threshold” value ([2]; 30 minute time point) is reported as ~28 grams. The “antiallodynic effect” value ([2]; tested 30, 60, 120, 240 min) was “significant antiallodynic effect at the 30 and 60 minute time points”, the IC50 [3] was 1200 nM and the “antiallodynic effect” value (L5 SNL rats; 30 mg/kg IP, 8 days post surgery, 30 min post treatment) was “not statistically significant”. The “antiallodynic effect” value (L5 SNL rats; 60 mg/kg PO, 14 days post-surgery, tested 30, 60, 120, 240 min) was “did not produce significant antiallodynic effects at any time point”, the “antinociceptive activity” value ([4]; 30 mg/kg IP, 30, 60, 120 min) was “no antinociception was observed” and the “% MPE values (range)” value ([4]; 30 mg/kg IP, 30, 60 or 120 min) was 10-17%. For the same compound, the Ki [5] was 170 nM and the IC50 (human recombinant CYP2D6) was 236 nM.
